Laboratory results published in patent publication US8691865B2 (AbbVie Inc., priority 2008, dated 2014).

These molecules were tested against human Cav2.2 (Homo sapiens, UniProt Q00975) (assay: Assessment of calcium channel activity using FLIPR (Ca2+ influx in IMR32 cells)). Details: not given.
Type: cell-based
Experimental: (i) In Vitro Methods—Assessment of Calcium Channel Activity Using FLIPR:
The IMR32 cells were maintained in MEM media containing 10% (v/v) FBS, 1% (v/v) antibiotic/antimitotic, 1% (v/v) sodium pyruvate and 1% (v/v) MEM NEAA. Following dissociation in 0.05% (v/v) trypsin/EDTA, cells were seeded into black 1×96-well plates (Corning Cellbind) at a density of 1−1.2×10^5 cells/well and incubated in the maintenance media above for 48 hours at 37° C. […] To determine the IC50 values, the percent inhibition of the compound at each concentration was determined relative to the activity in the absence of inhibitor, and data was fitted using non-linear regression sigmoidal dose response curve analysis with GraphPad Prism®.

Sequence of human Cav2.2 (Q00975 whole entry): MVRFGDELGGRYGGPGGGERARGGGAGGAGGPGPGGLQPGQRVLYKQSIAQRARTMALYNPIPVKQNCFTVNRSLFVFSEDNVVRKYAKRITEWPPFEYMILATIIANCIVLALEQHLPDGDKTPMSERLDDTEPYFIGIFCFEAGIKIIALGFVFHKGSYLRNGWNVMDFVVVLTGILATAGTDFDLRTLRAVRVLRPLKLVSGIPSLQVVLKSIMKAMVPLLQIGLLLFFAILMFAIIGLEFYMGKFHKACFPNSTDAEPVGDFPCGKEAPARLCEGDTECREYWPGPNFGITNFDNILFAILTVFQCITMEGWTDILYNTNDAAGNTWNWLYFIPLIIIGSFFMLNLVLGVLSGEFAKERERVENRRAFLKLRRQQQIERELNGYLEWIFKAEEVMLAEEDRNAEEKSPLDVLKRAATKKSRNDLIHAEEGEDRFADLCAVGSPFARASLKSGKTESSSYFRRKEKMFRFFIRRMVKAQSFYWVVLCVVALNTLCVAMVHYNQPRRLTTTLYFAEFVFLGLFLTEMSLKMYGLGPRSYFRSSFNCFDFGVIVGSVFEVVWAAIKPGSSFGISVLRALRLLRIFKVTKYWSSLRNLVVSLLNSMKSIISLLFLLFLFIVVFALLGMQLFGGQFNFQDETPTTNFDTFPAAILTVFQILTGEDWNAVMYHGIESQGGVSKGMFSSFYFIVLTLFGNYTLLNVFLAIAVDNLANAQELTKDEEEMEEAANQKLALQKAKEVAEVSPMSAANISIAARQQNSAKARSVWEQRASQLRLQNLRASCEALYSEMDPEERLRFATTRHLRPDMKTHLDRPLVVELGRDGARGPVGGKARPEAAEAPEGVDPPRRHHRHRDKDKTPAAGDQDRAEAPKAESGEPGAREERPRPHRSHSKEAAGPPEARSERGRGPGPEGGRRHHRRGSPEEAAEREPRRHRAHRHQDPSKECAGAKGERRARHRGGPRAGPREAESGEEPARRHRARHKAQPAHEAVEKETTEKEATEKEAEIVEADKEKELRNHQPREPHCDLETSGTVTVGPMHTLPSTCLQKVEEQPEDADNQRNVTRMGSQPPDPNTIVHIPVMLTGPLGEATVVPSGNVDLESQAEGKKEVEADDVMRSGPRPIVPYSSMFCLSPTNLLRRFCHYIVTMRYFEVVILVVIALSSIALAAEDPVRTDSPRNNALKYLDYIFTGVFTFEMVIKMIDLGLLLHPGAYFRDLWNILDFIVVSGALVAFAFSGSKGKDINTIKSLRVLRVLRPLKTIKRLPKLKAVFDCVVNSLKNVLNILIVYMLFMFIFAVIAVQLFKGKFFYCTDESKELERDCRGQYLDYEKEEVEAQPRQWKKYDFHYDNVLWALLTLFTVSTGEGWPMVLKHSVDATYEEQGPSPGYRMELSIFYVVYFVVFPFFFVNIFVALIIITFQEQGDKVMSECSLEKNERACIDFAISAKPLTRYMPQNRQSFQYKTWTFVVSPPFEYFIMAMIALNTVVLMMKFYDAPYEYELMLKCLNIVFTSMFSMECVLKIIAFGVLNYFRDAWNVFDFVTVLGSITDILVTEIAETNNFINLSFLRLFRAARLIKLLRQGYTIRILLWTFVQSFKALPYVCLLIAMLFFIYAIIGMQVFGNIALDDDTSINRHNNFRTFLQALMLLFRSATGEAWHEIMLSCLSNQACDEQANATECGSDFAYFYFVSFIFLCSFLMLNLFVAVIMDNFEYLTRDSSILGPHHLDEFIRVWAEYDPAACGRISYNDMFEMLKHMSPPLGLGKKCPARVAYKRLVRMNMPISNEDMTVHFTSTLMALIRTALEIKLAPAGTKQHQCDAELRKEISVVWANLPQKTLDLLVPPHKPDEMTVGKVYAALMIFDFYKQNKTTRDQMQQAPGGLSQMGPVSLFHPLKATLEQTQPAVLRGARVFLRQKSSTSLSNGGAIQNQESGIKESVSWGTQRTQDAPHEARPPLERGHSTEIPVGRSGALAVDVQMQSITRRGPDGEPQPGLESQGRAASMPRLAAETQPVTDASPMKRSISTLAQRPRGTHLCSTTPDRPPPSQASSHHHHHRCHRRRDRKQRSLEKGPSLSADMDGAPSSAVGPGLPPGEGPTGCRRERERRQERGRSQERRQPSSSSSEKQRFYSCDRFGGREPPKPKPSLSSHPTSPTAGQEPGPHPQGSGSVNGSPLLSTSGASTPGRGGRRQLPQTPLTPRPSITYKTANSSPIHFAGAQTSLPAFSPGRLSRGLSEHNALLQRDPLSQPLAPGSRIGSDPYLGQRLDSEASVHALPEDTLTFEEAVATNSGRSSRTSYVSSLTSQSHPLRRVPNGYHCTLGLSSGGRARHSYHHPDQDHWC
Sequence of human Cav2.2 (P54289 25-956 partner limits assumed): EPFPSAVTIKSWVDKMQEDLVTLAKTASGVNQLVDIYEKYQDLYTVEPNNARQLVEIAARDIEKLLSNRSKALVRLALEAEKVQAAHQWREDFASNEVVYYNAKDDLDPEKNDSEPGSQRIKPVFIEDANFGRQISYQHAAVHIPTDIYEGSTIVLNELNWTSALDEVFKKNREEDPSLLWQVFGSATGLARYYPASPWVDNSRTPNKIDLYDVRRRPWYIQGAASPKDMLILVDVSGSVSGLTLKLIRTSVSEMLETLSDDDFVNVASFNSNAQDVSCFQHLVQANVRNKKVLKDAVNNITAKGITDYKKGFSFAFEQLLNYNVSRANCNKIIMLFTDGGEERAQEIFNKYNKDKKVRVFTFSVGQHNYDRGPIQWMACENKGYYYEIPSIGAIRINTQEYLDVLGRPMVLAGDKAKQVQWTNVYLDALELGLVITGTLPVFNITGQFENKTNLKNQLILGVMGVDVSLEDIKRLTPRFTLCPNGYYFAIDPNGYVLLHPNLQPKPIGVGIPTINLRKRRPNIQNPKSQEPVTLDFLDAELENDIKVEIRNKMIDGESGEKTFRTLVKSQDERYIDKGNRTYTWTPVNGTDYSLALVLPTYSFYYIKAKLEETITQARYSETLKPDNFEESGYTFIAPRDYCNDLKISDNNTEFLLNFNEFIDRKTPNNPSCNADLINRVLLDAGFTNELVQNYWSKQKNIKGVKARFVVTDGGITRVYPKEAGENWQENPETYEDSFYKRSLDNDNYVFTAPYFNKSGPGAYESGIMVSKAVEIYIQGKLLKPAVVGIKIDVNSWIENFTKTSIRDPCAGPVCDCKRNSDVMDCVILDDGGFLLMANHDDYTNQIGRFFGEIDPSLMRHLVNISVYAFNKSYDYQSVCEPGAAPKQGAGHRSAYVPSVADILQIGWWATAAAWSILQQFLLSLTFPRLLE
Sequence of human Cav2.2 (P54289 957-1103 partner limits assumed): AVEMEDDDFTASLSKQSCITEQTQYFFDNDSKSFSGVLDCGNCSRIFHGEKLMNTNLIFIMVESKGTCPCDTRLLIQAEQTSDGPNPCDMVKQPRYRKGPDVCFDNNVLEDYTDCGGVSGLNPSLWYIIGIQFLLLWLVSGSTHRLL
Sequence of human Cav2.2 (P54284 whole entry partner): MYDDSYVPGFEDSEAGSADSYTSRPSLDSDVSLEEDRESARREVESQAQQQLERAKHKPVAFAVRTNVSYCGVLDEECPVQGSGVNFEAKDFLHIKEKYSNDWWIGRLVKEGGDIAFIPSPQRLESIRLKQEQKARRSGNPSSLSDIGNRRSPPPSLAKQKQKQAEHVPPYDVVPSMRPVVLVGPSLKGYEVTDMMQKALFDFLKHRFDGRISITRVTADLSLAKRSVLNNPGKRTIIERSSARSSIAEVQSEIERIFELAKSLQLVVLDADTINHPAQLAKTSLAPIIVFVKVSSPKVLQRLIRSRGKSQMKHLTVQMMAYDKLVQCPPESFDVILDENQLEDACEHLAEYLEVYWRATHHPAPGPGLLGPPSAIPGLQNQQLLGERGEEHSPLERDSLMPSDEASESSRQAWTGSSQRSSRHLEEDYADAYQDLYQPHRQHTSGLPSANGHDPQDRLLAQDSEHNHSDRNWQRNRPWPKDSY

Row | Compound | IC50 [µM]
1 | CN[C@@H](CC(C)C)C(=O)N[C@H]1CC[C@@H]2CN(c3nnc(C(F)(F)F)s3)C[C@@H]21 [Example 734, N^2-methyl-N-{(3aR,4S,6aS)-2-[5-(trifluoromethyl)-1,3,4-thiadiazol-2-yl]octahydrocyclopenta[c]pyrrol-4-yl}-L-leucinamide] | 26.4
2 | CN[C@H]1CC[C@@H]2CN(S(=O)(=O)c3ccc(C(F)(F)F)cc3)C[C@@H]21 [Example 301, (3aR,4S,6aS)-N-methyl-2-{[4-(trifluoromethyl)phenyl]sulfonyl}octahydrocyclopenta[c]pyrrol-4-amine] | > 9
3 | CN[C@@H](CC(C)C)C(=O)N[C@H]1CC[C@@H]2CN(c3cccc(C(F)(F)F)c3)C[C@@H]21 [Example 606, N^2-methyl-N-{(3aR,4S,6aS)-2-[3-(trifluoromethyl)phenyl]octahydrocyclopenta[c]pyrrol-4-yl}-L-leucinamide] | 1.19
4 | Cn1c(CN[C@H]2CC[C@@H]3CN(c4cccc(C(F)(F)F)n4)C[C@@H]32)nc2ccccc21 [Example 731, (3aR,4S,6aS)-N-[(1-methyl-1H-benzimidazol-2-yl)methyl]-2-[6-(trifluoromethyl)pyridin-2-yl]octahydrocyclopenta[c]pyrrol-4-amine] | 0.94
5 | CN[C@@H](CC(C)C)C(=O)N[C@H]1CC[C@@H]2CN(c3cccc(Cl)c3)C[C@@H]21 [Example 628, N-[(3aR,4S,6aS)-2-(3-chlorophenyl)octahydrocyclopenta[c]pyrrol-4-yl]-N^2-methyl-L-leucinamide] | 3.53
6 | CC(C)C[C@H](N[C@H]1CC[C@@H]2CN(c3cccc(C(F)(F)F)n3)C[C@@H]21)C(N)=O [Example 706, N^2-{(3aR,4S,6aS)-2-[6-(trifluoromethyl)pyridin-2-yl]octahydrocyclopenta[c]pyrrol-4-yl}-L-leucinamide] | 1.12
7 | CC(C)C[C@H](NC(=O)OC(C)(C)C)C(=O)N[C@@H]1CC[C@@H]2CN(Cc3cccc(C(F)(F)F)c3)C[C@@H]21 (stereo in doubt) [Example 137, N^2-(tert-butyloxycarbonyl)-N^1-{(3aR*,4R*,6aS*)-2-[3-(trifluoromethyl)benzyl]octahydrocyclopenta[c]pyrrol-4-yl}-L-leucinamide] | 0.65
8 | CCC[C@H](NC)C(=O)N[C@H]1CC[C@@H]2CN(S(=O)(=O)c3ccc(OC(F)(F)F)cc3)C[C@@H]21 [Example 532, N^2-methyl-N^1-((3aR,4S,6aS)-2-{[4-(trifluoromethoxy)phenyl]sulfonyl}octahydrocyclopenta[c]pyrrol-4-yl)-L-norvalinamide] | 3.16
9 | O=C(N[C@H]1CC[C@@H]2CN(c3cccc(C(F)(F)F)n3)C[C@@H]21)c1cc2ccccc2[nH]1 [Example 570, N-{(3aR,4S,6aS)-2-[6-(trifluoromethyl)pyridin-2-yl]octahydrocyclopenta[c]pyrrol-4-yl}-1H-indole-2-carboxamide] | 0.61
10 | O=S(=O)(N[C@H]1CC[C@@H]2CN(c3cccc(C(F)(F)F)n3)C[C@@H]21)c1ccccc1F [Example 703, 2-fluoro-N-{(3aR,4S,6aS)-2-[6-(trifluoromethyl)pyridin-2-yl]octahydrocyclopenta[c]pyrrol-4-yl}benzenesulfonamide] | 3.17

Next, values leading:

Row | IC50 [µM] | Compound
11 | > 9.5 | CN[C@H](C(=O)N[C@H]1CC[C@@H]2CN(c3ccc(OC(F)(F)F)cc3)C[C@@H]21)C(C)C [Example 756, N^2-methyl-N-{(3aR,4S,6aS)-2-[4-(trifluoromethoxy)phenyl]octahydrocyclopenta[c]pyrrol-4-yl}-L-valinamide]
12 | 2.06 | O=C(N[C@H]1CC[C@@H]2CN(c3cccc(C(F)(F)F)n3)C[C@@H]21)[C@H]1CC[C@@H](O)CC1 [Example 584, cis-4-hydroxy-N-{(3aR,4S,6aS)-2-[6-(trifluoromethyl)pyridin-2-yl]octahydrocyclopenta[c]pyrrol-4-yl}cyclohexanecarboxamide]
13 | 0.87 | FC(F)(F)c1cccc(N2C[C@H]3CC[C@H](NCc4cc5ccncc5s4)[C@H]3C2)n1 [Example 721, (3aR,4S,6aS)-N-(thieno[2,3-c]pyridin-2-ylmethyl)-2-[6-(trifluoromethyl)pyridin-2-yl]octahydrocyclopenta[c]pyrrol-4-amine]
14 | 0.75 | CN[C@@H](CC(C)C)C(=O)N[C@H]1CC[C@@H]2CN(c3cc(F)ccc3C(F)F)C[C@@H]21 [Example 770, N-{(3aR,4S,6aS)-2-[2-(difluoromethyl)-5-fluorophenyl]octahydrocyclopenta[c]pyrrol-4-yl}-N^2-methyl-L-leucinamide]
15 | 1.46 | CC(C)C(C(=O)N[C@@H]1CC[C@@H]2CN(Cc3ccccc3)C[C@@H]21)c1ccccc1 (relative stereo) [Example 5, N-[(3aR*,4R*,6aS*)-2-benzyloctahydrocyclopenta[c]pyrrol-4-yl]-3-methyl-2-phenylbutanamide]
16 | 2.77 | CN[C@@H](CC1CC1)C(=O)N[C@H]1CC[C@@H]2CN(c3ccc(OC(F)(F)F)cc3)C[C@@H]21 [Example 775, 3-cyclopropyl-N^2-methyl-N-{(3aR,4S,6aS)-2-[4-(trifluoromethoxy)phenyl]octahydrocyclopenta[c]pyrrol-4-yl}-L-alaninamide]
17 | 0.36 | CN[C@@H](CC(C)C)C(=O)N[C@H]1CC[C@@H]2CN(c3ccc(F)cc3C(F)(F)F)C[C@@H]21 [Example 737, N-{(3aR,4S,6aS)-2-[4-fluoro-2-(trifluoromethyl)phenyl]octahydrocyclopenta[c]pyrrol-4-yl}-N^2-methyl-L-leucinamide]
18 | 26.2 | O=C(N[C@H]1CC[C@@H]2CN(c3ccc(F)cc3)C[C@@H]21)[C@@H]1C[C@@H](F)CN1 [Example 641, (4R)-4-fluoro-N-[(3aR,4S,6aS)-2-(4-fluorophenyl)octahydrocyclopenta[c]pyrrol-4-yl]-L-prolinamide]

Same assay, conditions: read-out: IC50 (μM) or percent inhibition (* indicates 3 minute incubation, otherwise 60 minute); IC50; 60 minute pre-incubation with compound; IMR32 cells, 80 mM KCl depolarization

Row | Compound | IC50 [µM]
19 | CC(C)C[C@H](NC(=O)C(C)(C)C)C(=O)N[C@@H]1CC[C@H]2CN(Cc3cccc(C(F)(F)F)c3)C[C@H]21 [Example 177, N^2-(2,2-dimethylpropanoyl)-N^1-{(3aS,4R,6aR)-2-[3-(trifluoromethyl)benzyl]octahydrocyclopenta[c]pyrrol-4-yl}-L-leucinamide] | 2.64
20 | CC[C@H](C(=O)N[C@H]1CC[C@@H]2CN(Cc3ccccc3)C[C@@H]21)c1ccccc1 [Example 33, (2S)-N-[(3aR,4S,6aS)-2-benzyloctahydrocyclopenta[c]pyrrol-4-yl]-2-phenylbutanamide] | 7.41
21 | CC(C)(C)[C@@H](C(=O)N[C@@H]1CC[C@H]2CN(Cc3ccccc3)C[C@H]21)c1ccccc1 [Example 32, (2R)-N-[(3aS,4R,6aR)-2-benzyloctahydrocyclopenta[c]pyrrol-4-yl]-3,3-dimethyl-2-phenylbutanamide] | 1.42
22 | CCC[C@H](NC)C(=O)N[C@H]1CC[C@@H]2CN(S(=O)(=O)c3ccc(C(C)(C)C)cc3)C[C@@H]21 [Example 543, N^1-{(3aR,4S,6aS)-2-[(4-tert-butylphenyl)sulfonyl]octahydrocyclopenta[c]pyrrol-4-yl}-N^2-methyl-L-norvalinamide] | 3.2
23 | CC(C)C[C@@H](N)C(=O)N[C@@H]1CC[C@H]2CN(Cc3cccc(C(F)(F)F)c3)C[C@H]21 (relative stereo) [Example 162, N^1-{(3aS*,4R*,6aR*)-2-[3-(trifluoromethyl)benzyl]octahydrocyclopenta[c]pyrrol-4-yl}-D-leucinamide] | 3.94
24 | CC(C)C[C@H](N)C(=O)N[C@H]1CC[C@H]2CN(Cc3cccc(C(F)(F)F)c3)C[C@H]21 (stereo in doubt) [Example 158, N^1-{(3aS*,4S*,6aR*)-2-[3-(trifluoromethyl)benzyl]octahydrocyclopenta[c]pyrrol-4-yl}-L-leucinamide] | 3.51

Second part, the molecule after the results:

Row | IC50 [µM] | Compound
25 | 1.78 | Cc1cccc(CN2C[C@H]3CC[C@H](NC(=O)C(c4ccccc4)C(C)C)[C@H]3C2)c1 (stereo partly drawn) [Example 91, 3-methyl-N-[(3aR,4S,6aS)-2-(3-methylbenzyl)octahydrocyclopenta[c]pyrrol-4-yl]-2-phenylbutanamide]
26 | 1.01 | CC(C)C[C@H](C(=O)N[C@H]1CC[C@H]2CN(Cc3cccc(C(F)(F)F)c3)C[C@H]21)N(C)C(=O)OC(C)(C)C (relative stereo) [Example 139, N^2-(tert-butyloxycarbonyl)-N^2-methyl-N^1-{(3aS*,4S*,6aR*)-2-[3-(trifluoromethyl)benzyl]octahydrocyclopenta[c]pyrrol-4-yl}-D-leucinamide]
27 | 1.27 | O=S(=O)(c1cccc(C(F)(F)F)c1)N(C1CC1)[C@H]1CC[C@H]2CN(Cc3cccc(C(F)(F)F)c3)C[C@H]21 (relative stereo) [Example 204, N-cyclopropyl-3-(trifluoromethyl)-N-{(3aS*,4S*,6aR*)-2-[3-(trifluoromethyl)benzyl]octahydrocyclopenta[c]pyrrol-4-yl}benzenesulfonamide]
28 | 9.75 | CC[C@H](C(=O)N[C@@H]1CC[C@H]2CN(Cc3ccccc3)C[C@H]21)c1ccccc1 [Example 16, (2S)-N-[(3aS,4R,6aR)-2-benzyloctahydrocyclopenta[c]pyrrol-4-yl]-2-phenylbutanamide]
29 | 16.5 | O=C(N[C@H]1CC[C@H]2CN(Cc3ccccc3)C[C@H]21)C(C1CCCCC1)C1CCCCC1 [Example 15, N-[(3aS,4S,6aR)-2-benzyloctahydrocyclopenta[c]pyrrol-4-yl]-2,2-dicyclohexylacetamide]
30 | 11.3 | CCC[C@H](NC)C(=O)N[C@H]1CC[C@@H]2CN(S(=O)(=O)c3ccc(OC)cc3)C[C@@H]21 [Example 537, N^1-{(3aR,4S,6aS)-2-[(4-methoxyphenyl)sulfonyl]octahydrocyclopenta[c]pyrrol-4-yl}-N^2-methyl-L-norvalinamide]
